From patent publication US6225478A, “Iridoid derivatives and neovascularization inhibitors containing the same as active ingredient” (Tsumura & Co., priority 1999, dated 2001) come the findings set out here.

Holding throughout (type): cell-based
The subject of test [1] is human umbilical-vein endothelial cells (HUVEC). Description: Cell Proliferation Assay (CPA) Test, HUVEC, MTT. Conditions: M199 (2+) medium; for IC50: Homo sapiens, read-out: CPA (IC50 μg/ml). The method, boiled down:
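HUVEC (7th subculture) seeded at 5×10^4 cells/ml in M-199 with 20% FCS, 10 ng/ml b-FGF and 10 ng/ml EGF, grown 24 h at 37 °C, 5% CO2. Compounds added from 1 mg/ml or 0.1 mg/ml samples in 5% DMSO-PBS(−), renewed with medium after 24 h, then cultured 48 h more. Read-out by MTT with 4 h incubation and SDS/HCl stop.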

For test [2] the test system is unchanged. Description: Cell Migration Assay (CMA) Test, HUVEC (% relative to control). To be noted: 24 hours, 60% or less = remarkable inhibition; for activity at 1 µg/mL / activity at 10 µg/mL: Homo sapiens, HUVEC, read-out: CMA (% relative to control). An outline of the steps: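 Confluent 7th-subculture HUVEC monolayers scraped with razor blade, then given M199 (2+) plus 40 or 4 μl of 1 mg/ml sample (in 5% DMSO-PBS) per 4.0 ml medium for 24 h at 37 °C. Methanol-fixed, Giemsa-stained; newly migrated cells counted microscopically in 1 mm×1 mm blocks, expressed versus M199 (2+) control.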

The test system is the same in test [3]. The test can be described thus: Tube Formation Assay (TFA) Test, HUVEC in collagen gel. To be noted: 20 hours, 40% or less judged remarkable; for inhibition at 1 µg/mL / inhibition at 10 µg/mL: Homo sapiens, HUVEC, 20 h, read-out: TFA (inhibition rate, %). An outline of the steps:
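Inhibition rate (%) of tube formation is computed from tube lengths against control (+) and control (-), measured after 20 h at 37 °C in M-199 with 20% FCS, 30 ng/ml b-FGF and 0.1 μM PMA. Samples were applied to HUVEC on collagen and covered by a second collagen layer (double-layer gel).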

Structures are written as SMILES. Values after ≈ are worked out from the molar mass of the structure shown.

Broadly, the inhibition is the drop in the measured response relative to a control, in per cent. As to `CCNC(=O)C1=CO[C@@H](OC(=O)NC)[C@@H]2[C@@H]1C[C@@H]1O[C@]21C` [compound 16, (1S,4aS,6S,7R,7aR)-6,7-epoxy-1,4a,5,6,7,7a-hexahydro-7-methyl-1-(methylcarbamoyloxy) cyclopenta [c]-pyrane-4-carboxylic acid ethylamide], the IC50 in test [1] was > 100 µg/mL. Besides, the activity at 1 µg/mL in test [2] (1 μg/ml) was found to be 98.1%. Also, the activity at 10 µg/mL in test [2] (10 μg/ml) turned out to be 102%. In addition, the inhibition at 1 µg/mL in test [3] (1 μg/ml) is 30.7%. Also, the inhibition at 10 µg/mL in test [3] (10 μg/ml) turned out to be 21.6%.
In the case of `CNC(=O)OC1OC=C(C(=O)N2CC(C)OC(C)C2)C2CC3OC3(C)C12` [compound 24, (1S,4aS,6S,7R,7aR)-6,7-epoxy-1,4a,5,6,7,7a-hexahydro-7-methyl-1-(methylcarbamoyloxy) cyclopenta [c]-pyrane-4-carboxylic acid 2,6-dimethylmorpholylamide], the IC50 in test [1] is > 100 µg/mL. Besides, the activity at 1 µg/mL in test [2] (1 μg/ml) was found to be 96.9%. Moreover, the activity at 10 µg/mL in test [2] (10 μg/ml) amounted to 112%. Further, the inhibition at 1 µg/mL in test [3] (1 μg/ml) came to 41.3%. Also, the inhibition at 10 µg/mL in test [3] (10 μg/ml) worked out at 24.2%.
As for `CCNC(=O)O[C@@H]1OC=C(C(=O)OC)[C@H]2C[C@@H]3O[C@]3(C)[C@H]12` [compound 30, (1S,4aS,6S,7R,7aR)-6,7-epoxy-1-(ethylcarbamoyloxy)-1,4a,5,6,7,7a-hexahydro-7-methylcyclopenta [c] pyrane-4-carboxylic acid methylester], in test [1], the IC50 is > 100 µg/mL. Further, the activity at 1 µg/mL in test [2] (1 μg/ml) came to 90%. In addition, the activity at 10 µg/mL in test [2] (10 μg/ml) was 105%. Moreover, in test [3] (1 μg/ml), the inhibition at 1 µg/mL was 16.5%. Also, the inhibition at 10 µg/mL in test [3] (10 μg/ml) amounted to 36%.
`COC(=O)C1=COC(OC(=O)N(C)C)C2C1CC1OC12C` (stereo not shown) [compound 31]: in test [1], the IC50 is > 100 µg/mL. In addition, the activity at 1 µg/mL in test [2] (1 μg/ml) was determined as 97.2%. Further, in test [2] (10 μg/ml), the activity at 10 µg/mL stood at 107%. Moreover, the inhibition at 1 µg/mL in test [3] (1 μg/ml) turned out to be 15.2%. Further, the inhibition at 10 µg/mL in test [3] (10 μg/ml) amounted to 26.5%.
Take `CNC(=O)O[C@@H]1OC=C(C(=O)OC)[C@H]2C[C@@H]3O[C@]3(CF)[C@@H]12` [compound 50, (1S,4aS,6S,7R,7aR)-6,7-epoxy-7-(fluoromethyl)-1-(methylcarbamoloxy)-1,4a,5,6,7,7a-hexahydrocyclopenta [c] pyrane-4-carboxylic acid methylester]: the IC50 in test [1] is > 100 µg/mL. Also, the activity at 1 µg/mL in test [2] (1 μg/ml) was found to be 87.9%. In addition, the activity at 10 µg/mL in test [2] (10 μg/ml) was 63.5%. Further, the inhibition at 1 µg/mL in test [3] (1 μg/ml) is 9.5%. Moreover, in test [3] (10 μg/ml), the inhibition at 10 µg/mL turned out to be 23.2%.
In the case of `CNC(=O)O[C@@H]1OC=C(C(=O)OC)[C@H]2CC[C@]3(CO3)[C@@H]12` [compound 53, (1S,4aS,7S,7aR)-1-(methylcarbamoyloxy)-1,4a,5,6,7,7a-hexahydrospiro [cyclopenta [c]pyrane-7(1H),2'-oxirane]-4-carboxylic acid methylester], the IC50 in test [1] was > 100 µg/mL. In test [2] (1 μg/ml), the activity at 1 µg/mL is 100%. Besides, the activity at 10 µg/mL in test [2] (10 μg/ml) came out at 94.1%. The inhibition at 1 µg/mL in test [3] (1 μg/ml) was determined as 26%. In addition, in test [3] (10 μg/ml), the inhibition at 10 µg/mL was found to be 9.7%.
Take `CNC(=O)O[C@@H]1OC=C(C(=O)OC)[C@H]2C[C@@H]3OC3(COC)C12` (stereo in doubt) [compound 49, (1S,4aS,6S,7R,7aR)-6,7-epoxy-7-(methoxymethyl)-1-(methylcarbamoyloxy)-1,4a,5,6,7,7a-hexahydrocyclopenta [c] pyrane-4-carboxylic acid methylester]: the IC50 in test [1] is > 100 µg/mL. The activity at 1 µg/mL in test [2] (1 μg/ml) was 102%. Also, in test [2] (10 μg/ml), the activity at 10 µg/mL is 104%. The inhibition at 1 µg/mL in test [3] (1 μg/ml) turned out to be 21.2%. Besides, the inhibition at 10 µg/mL in test [3] (10 μg/ml) was 12.8%.
With `CNC(=O)O[C@@H]1OC=C(C(=O)NC2CCCCC2)[C@H]2C[C@@H]3O[C@]3(C)[C@H]12` [compound 21, (1S,4aS,6S,7R,7aR)-6,7-epoxy-1,4a,5,6,7,7a-hexahydro-7-methyl-1-(methylcarbamoyloxy) cyclopenta [c]-pyrane-4-carboxylic acid cyclohexylamide], the IC50 in test [1] was > 100 µg/mL. For the same compound, the activity at 1 µg/mL in test [2] (1 μg/ml) is 105%. Further, the activity at 10 µg/mL in test [2] (10 μg/ml) is 101%. Also, in test [3] (1 μg/ml), the inhibition at 1 µg/mL was found to be 29.5%. In test [3] (10 μg/ml), the inhibition at 10 µg/mL was 23.2%.
For the compound `CNC(=O)O[C@@H]1OC=C(C(=O)OC/C=C(\C)CCC=C(C)C)[C@H]2C[C@@H]3O[C@]3(C)[C@H]12` [compound 6, (1S,4aS,6S,7R,7aR)-6,7-epoxy-1,4a,5,6,7,7a-hexahydro-7-methyl-1-(methylcarbamoyloxy) cyclopenta [c]-pyrane-4-carboxylic acid geranyl ester], the IC50 in test [1] was > 100 µg/mL. Also, in test [2] (1 μg/ml), the activity at 1 µg/mL was found to be 106%. Also, in test [2] (10 μg/ml), the activity at 10 µg/mL is 105%. In test [3] (1 μg/ml), the inhibition at 1 µg/mL worked out at 24.2%. The inhibition at 10 µg/mL in test [3] (10 μg/ml) was found to be 8.7%.
With `CCOC(=O)C1=CO[C@@H](OC(=O)NC)[C@@H]2[C@@H]1C[C@@H]1O[C@]21C` [compound 4, (1S,4aS,6S,7R,7aR)-6,7-epoxy-1,4a,5,6,7,7a-hexahydro-7-methyl-1-(methylcarbamoyloxy) cyclopenta [c]-pyrane-4-carboxylic acid ethylester], the IC50 in test [1] was > 100 µg/mL. For the same compound, the activity at 1 µg/mL in test [2] (1 μg/ml) was found to be 70.8%. Moreover, the activity at 10 µg/mL in test [2] (10 μg/ml) amounted to 53%. Also, the inhibition at 1 µg/mL in test [3] (1 μg/ml) came to 40.5%. The inhibition at 10 µg/mL in test [3] (10 μg/ml) was determined as 5.6%.
As to `CNC(=O)OC[C@@H]1[C@H](C)CC[C@@H]1C1(COC(=O)NC)CO1` (stereo partly drawn) [Compound 58, 2-[(1S,2R,3R)-2-(methylcarbamoyloxy)methyl-3-methylcyclopento-1-yl]-2,3-epoxy-propane-1-methylcarbamate], the “CPA (IC50 μg/ml)” value in test [1] was > 100.0 µg/mL. For the same compound, the “CMA (% relative to control)” value in test [2] (1 μg/ml) came out at 121.6%; in test [2] (10 μg/ml), 97.0%. Also, the figures for the “TFA (inhibition rate, %)” value in test [3] (1 μg/ml) and in test [3] (10 μg/ml) were 20.6% and 22.3%, respectively.
For `C=CCCOC(=O)C1=CO[C@@H](OC(=O)NC)[C@@H]2[C@@H]1C[C@@H]1O[C@]21C` [compound 8, (1S,4aS,6S,7R,7aR)-6,7-epoxy-1,4a,5,6,7,7a-hexahydro-7-methyl-1-(methylcarbamoyloxy) cyclopenta [c]-pyrane-4-carboxylic acid 3-butenylester], the IC50 in test [1] was 60.5 µg/mL (≈ 187 µM). Moreover, the activity at 1 µg/mL in test [2] (1 μg/ml) was found to be 75.4%. Besides, the activity at 10 µg/mL in test [2] (10 μg/ml) was determined as 60.5%. In addition, the inhibition at 1 µg/mL in test [3] (1 μg/ml) was 27.3%. For the same compound, in test [3] (10 μg/ml), the inhibition at 10 µg/mL is 93.2%.
For `CNC(=O)O[C@@H]1OC=C(C(=O)OC2CCCCC2)[C@H]2C[C@@H]3O[C@]3(C)[C@H]12` [compound 14, (1S,4aS,6S,7R,7aR)-6,7-epoxy-1,4a,5,6,7,7a-hexahydro-7-methyl-1-(methylcarbamoyloxy) cyclopenta [c]-pyrane-4-carboxylic acid cyclohexylester], in that order: > 100 µg/mL, 99.4%, 102%, 38.2% and 48.7%.
Regarding `CNC(=O)O[C@@H]1OC=C(C(=O)OC)[C@H]2C[C@@H]3OC3(COC(=O)OC)C12` (stereo in doubt) [compound 47, (1S,4aS,6S,7R,7aR)-6,7-epoxy-7-(methoxycarbonyloxymethyl)-1-(methylcarbamoyloxy)-1,4a,5,6,7,7a-hexahydrocyclopenta [c] pyrane-4-carboxylic acid methylester], the IC50 in test [1] is > 100 µg/mL. Moreover, the activity at 1 µg/mL in test [2] (1 μg/ml) was determined as 95.9%. For the same compound, in test [2] (10 μg/ml), the activity at 10 µg/mL was 60.5%. Also, the inhibition at 1 µg/mL in test [3] (1 μg/ml) was -27.3%. Besides, the inhibition at 10 µg/mL in test [3] (10 μg/ml) worked out at 2.6%.
